This note sets out measurements from publication PMC7367873, “Dissecting the sequence determinants for dephosphorylation by the catalytic subunits of phosphatases PP1 and PP2A” (Nature Communications, 2020).

“Also recorded” adds a separate entry of the source.

The subject of this test is GAB2/GFP-14-3-3β interaction. Nature of the test: GAB2/14-3-3 binding assay (GFP-14-3-3β pull-down, Western blot). Further details: species or system human. As for the experimental part:
pEGFP(C1)-14-3-3β or pCMV-GAB2-3FLAG was transfected into HeLa Kyoto cells as described in the respective section for 24 h. Cells were incubated with or w/o 20 nM Calyculin A (# 9902 S, Cell Signaling Technology) in complete growth media for 12 min. Cells were washed twice on ice with cold PBS and after addition of 500 µL lysis buffer (100 mM NaCl, 10 mM Tris, 0.1% IGEPAL, 1 mM EDTA, 1 mM EGTA, 20 nM Calyculin A, 1x cOmplete Mini protease inhibitor cocktail (Sigma), 2 mM DTT, 2 mM MnCl2) cells were scraped from plates, lysed by 10 pushes through an injection needle and the insoluble fraction was pelleted by centrifugation (10 min, 10^4 rcf, 4 °C). Supernatants were then subjected to incubation with 1 µM recombinant PP1c (if not indicated otherwise) or buffer for 1 h at 30 °C. […] Next, we subjected samples to immunoprecipitation/pull-down using 25 µL of α-FLAG M2 magnetic bead slurry (Sigma-Aldrich) or an equal volume of bead-coupled α-GFP nanobodies (EMBL PEPcore Core Facility) for 2 h at 4 °C. Beads were then washed three times with lysis buffer and samples were eluted in 1x SDS sample buffer by heating to 95 °C for 10 min and further analyzed by SDS PAGE for 14-3-3/GAB2 association and phosphorylation status of GAB2-pS210.
For SDS-PAGE, samples were loaded on NuPAGE™ 4-12% Bis-Tris protein gels (Invitrogen) and gel electrophoresis was performed at 180 V constant in 1x MOPS buffer. Samples were transferred onto CN blotting membranes (0.45 µm, neoLab) by wet blotting. Membranes were stained using Ponceau, followed by blocking with Tris-buffered saline with 0.1% Tween (TBS-T) containing 5% (w/v) non-fat milk for 45 min at room temperature. After three washes (5 min), membranes were then incubated with the following antibodies in TBS-T with 5% BSA overnight at 4 °C: α-GFP (1:2000, Abcam, ab6556), α-GAB2 (1:1000, CST, #3239), α-GAB2-pS210 (1:250, Symansis, customized purification), α-FLAG (1:1000, M2, Sigma-Aldrich, F3165), α-pan14-3-3 (1:500, SCBT, sc-629), α-PP1 (1:1000, SCBT, sc-7482), α-PP2A (1:1000, SCBT, sc-130237) or α-6His (1:2000, Abcam, ab9108). Afterwards blots were washed three times in TBS-T and incubated with goat anti-mouse IgG-peroxidase conjugate (1:2500, Sigma, A0168), donkey anti-rabbit IgG-horseradish peroxidase (HRP) conjugate (1:2500, GE Healthcare, GENA934), or rabbit anti-sheep IgG (H + L) HRP conjugate (1:2500, Thermo Fisher Scientific, 61-8620) for 2 h at room temperature. […] All blots were quantified using raw images and ImageLab software (v6.0.1, BioRad): Files were imported and analyzed without further modifications. […] The quantification was exported from the analysis table and measurements of background adjusted band volumes where used for further normalization steps and graphical depiction. […]
Background: A western blot detects proteins with antibodies after separation by electrophoresis.

As for “PP1c: recombinant catalytic subunit of PP1”, the “interaction of GAB2 with overexpressed GFP-14-3-3β” value (Calyculin A 20 nM in cells, recombinant PP1c in lysate 1 h at 30 °C, PP1c-concentration-dependent, three independent experiments) is given as “decreased upon addition of recombinant PP1c in a PP1c–concentration-dependent manner; also recorded: less associated with endogenous GAB2”. Besides, under “recombinant PP1c mixed with equimolar Calyculin A for 5–10 min before addition to lysate”, the “interaction of GAB2 with GFP-14-3-3β, PP1c pre-inhibited” value is “but not if recombinant PP1c was inhibited prior to treatment”.
